Results as given in US11690810B2, “Combination treatment of bacterial infection” (The Chinese University of Hong Kong, priority 2018, dated 2023).
Converted amounts (≈) assume the structure as drawn. Read-outs that look alike come from different tables or passages of the source.

What was measured:
[1] = Solubility; settings: saline or isotonic
[2] = test system: HA MRSA W231; settings: ECG+Kur+Van
[3] = test system: cytokines production of human macrophages stimulated with PGN or SEB; assay type: cell-based
[4] = test system: HA MRSA W239; experiment: MIC and checkerboard (FIC) assay; settings: for FIC / MIC combine / MIC alone: W239
[5] = test system: MRSA SA-ST239; experiment: MIC and checkerboard (FIC) assay
[6] = test system: S. aureus SA-APH3′ (APH3), resistant to kanamycin; experiment: MIC and checkerboard (FIC) assay
[7] = test system: CA MRSA W45; experiment: MIC and checkerboard (FIC) assay; settings: for FIC / MIC combine / MIC alone: W45
[8] = test system: HA MRSA W240; experiment: MIC and checkerboard (FIC) assay; settings: for FIC / MIC combine: ECG with Kur
[9] = test system: S. aureus SA-RN4220-pUL5054 (RN4220); experiment: MIC and checkerboard (FIC) assay
[10] = test system: adherence of MRSA strain JE-2 to fibrinogen; experiment: Fibrinogen-binding adherence assay (crystal violet); assay type: cell-based, Staphylococcus aureus; settings: varying concentrations
[11] = test system: Human Umbilical Vein Endothelial Cells (HUVEC); experiment: XTT cytotoxicity testing; settings: 2-64 μg/ml, vs drug free control
[12] = test system: bacterial aggregation of MRSA JE-2; experiment: Aggregation assay of MRSA JE-2; assay type: cell-based, Staphylococcus aureus; settings: JE-2; varying concentrations
[13] = test system: S. aureus SA-1199B (NorA efflux pump overexpressed); experiment: MIC and checkerboard (FIC) assay; settings: for FIC / MIC combine: 1199B; for MIC: read-out: MIC alone, 1199B
[14] = test system: adherence of MRSA strain JE-2 to HaCat keratinocytes; experiment: Bacterial adherence to HaCaT keratinocytes; assay type: cell-based, Staphylococcus aureus
[15] = test system: Panton-Valentine leukocidin positive CA-MRSA strain ST30; assay type: in vivo, Balb/c mice; settings: ST30; used alone at 60 and 120 mg/kg
[16] = test system: CA MRSA W47; experiment: MIC and checkerboard (FIC) assay; settings: for FIC / MIC combine / MIC alone: W47
[17] = test system: cytokines production of human PBMC stimulated with PGN or SEB; assay type: cell-based
[18] = test system: internalization of MRSA strain JE-2 by HaCat keratinocytes; experiment: Internalization of S. aureus by HaCaT keratinocytes; assay type: cell-based, Staphylococcus aureus
[19] = test system: S. aureus ATCC25923 (methicillin sensitive); experiment: MIC and checkerboard (FIC) assay
[20] = test system: NorA overexpressed S. aureus; settings: ECG at 20 μg/ml; norfloxacin-resistant S. aureus overexpressing NorA (16); cited from earlier work
[21] = test system: S. aureus SA-ANT4′ (ANT4), resistant to fusidic acid; experiment: MIC and checkerboard (FIC) assay; settings: for MIC alone: ANT4 (fusidic acid resistant); for FIC / MIC combine: ANT4
[22] = test system: panel of laboratory MRSA strains; experiment: MIC and combination tests, panel of laboratory strains
[23] = test system: S. aureus ATCC25923 (methicillin sensitive); settings: ATCC 25293; ECG with Kur
[24] = test system: Human Mammary Epithelial Cell (HMEC); experiment: XTT cytotoxicity testing; assay type: cell-based; settings: 2-64 μg/ml, vs drug free control
Description: The plates were maintained in a 37° C. incubator.

[25] = Staphylococcus aureus, MRSA, read-out: MIC alone
[26] = ST239, ECG with WQD-169 (Kuraridin)
[27] = Staphylococcus aureus, read-out: MIC 99.9
[28] = Staphylococcus aureus, read-out: MIC alone

For `O=C(O[C@@H]1Cc2c(O)cc(O)cc2O[C@@H]1c1ccc(O)c(O)c1)c1cc(O)c(O)c(O)c1` [ECG, epicatechin gallate], the solubility [1] was 20 mg/mL (≈ 45.2 mM), the FIC [2] was 0.0004 and the MIC combine [2] was 0.25 µg/mL. The IL-12 production [3] was “could suppress only IL-12”, the MIC [4, 25] was 512 µg/mL and the FIC ([4]; ECG with Kur) was 0.002. The MIC combine ([4]; ECG with Kur) was 1 µg/mL, the FIC ([4]; ECG+Kur+Van) was 0.0009 and the MIC combine ([4]; ECG+Kur+Van) was 0.5 µg/mL. It also gave an MIC alone ([4]; Table 5) of 512 µg/mL, an FIC ([5]; ST239, ECG with Kur) of 0.004 and an MIC combine ([5]; ST239, ECG with Kur) of 2 µg/mL. It also gave an FIC ([5]; ST239, ECG with WQD-164) of 0.001, an MIC combine ([5]; ST239, ECG with WQD-164) of 2 µg/mL and an FIC ([5]; ST239, ECG with WQD-165) of 0.0009. It also gave an MIC combine ([5]; ST239, ECG with WQD-165) of 0.5 µg/mL, an FIC [5, 26] of 0.007 and an MIC combine [5, 26] of 4 µg/mL. The FIC ([5]; ST239, ECG with WQD-175) was 0.0009, the MIC combine ([5]; ST239, ECG with WQD-175) was 0.5 µg/mL and the FIC ([5]; ST239, ECG+Kur+Van) was 0.0004. For the same molecule, the MIC combine ([5]; ST239, ECG+Kur+Van) was 0.25 µg/mL, the MIC alone ([5]; ST239, Table 5) was 512 µg/mL and the MIC90 ([5]; Staphylococcus aureus, MRSA) was 16 µg/mL. It also gave an MIC99 ([5]; Staphylococcus aureus, MRSA, read-out: MIC 99.9) greater than 512 µg/mL, an MIC [5, 25] of 512 µg/mL and an MIC alone ([5]; Strain ST239, Table 9) of 512 µg/mL. The FIC ([6]; APH3, Kuraridin with ECG) was 0.0009, the MIC combine ([6]; APH3, Kuraridin with ECG) was 0.5 µg/mL and the MIC90 ([6]; Staphylococcus aureus) was 4 µg/mL. It also gave an MIC99 [6, 27] greater than 512 µg/mL, an MIC [6, 28] of 512 µg/mL and an MIC [7, 25] of 512 µg/mL. The FIC ([7]; ECG with Kur) was 0.002, the MIC combine ([7]; ECG with Kur) was 1 µg/mL and the FIC ([7]; ECG+Kur+Van) was 0.0004. The MIC combine ([7]; ECG+Kur+Van) was 0.25 µg/mL, the MIC alone ([7]; Table 5) was 512 µg/mL and the MIC [8, 25] was 512 µg/mL. The FIC ([8]; W240) was 0.008, the MIC combine ([8]; W240) was 4 µg/mL and the FIC ([9]; RN4220, Kuraridin with ECG) was 0.01. For the same molecule, the MIC combine ([9]; RN4220, Kuraridin with ECG) was 8 µg/mL, the MIC90 ([9]; Staphylococcus aureus) was 8 µg/mL and the MIC99 [9, 27] was greater than 512 µg/mL. The MIC [9, 28] was 512 µg/mL, the fibrinogen-binding adherence [10] was “dose-dependent reduction of adherence” and the “Cellular toxicity (XTT assay)” value [11] was “not toxic”. The bacterial aggregation [12] was “No significant reduction”, the FIC ([13]; Baicalein with ECG) was 0.25 and the MIC combine ([13]; Baicalein with ECG) was 8 µg/mL. For the same molecule, the FIC ([13]; Kuraridin with ECG) was 0.06, the MIC combine ([13]; Kuraridin with ECG) was 32 µg/mL and the MIC90 ([13]; Staphylococcus aureus) was 8 µg/mL. The MIC99 [13, 27] was greater than 512 µg/mL, the MIC ([13]; Staphylococcus aureus, Baicalein and ECG section) was 32 µg/mL and the MIC ([13]; Staphylococcus aureus, Kuraridin and ECG section) was 512 µg/mL. The “decrease in the adherence of the WT strain to HaCaT cells” value ([14]; 64 μg/ml of ECG) was 1.4 fold, the “percentage of adherence of the bacteria to HaCaT cells” value (from here on “percentage … to HaCaT cells”) ([14]; ECG 4 μg/ml) was 73.0±4.1% and the “percentage … to HaCaT cells” value ([14]; ECG 8 μg/ml) was 75.4±11.0%. For the same molecule, the “percentage … to HaCaT cells” value ([14]; ECG 16 μg/ml) was 76.4±7.0%, the “percentage … to HaCaT cells” value ([14]; ECG 32 μg/ml) was 58.8±8.5% and the “percentage … to HaCaT cells” value ([14]; ECG 64 μg/ml) was 52±6.5%. The “log CFU counts and survival rates” value [15] was “could not reduce the log CFU counts or improve the survival rates”, the MIC [16, 25] was 512 µg/mL and the FIC ([16]; ECG with Kur) was 0.004. The MIC combine ([16]; ECG with Kur) was 2 µg/mL, the FIC ([16]; ECG+Kur+Van) was 0.0004 and the MIC combine ([16]; ECG+Kur+Van) was 0.25 µg/mL. For the same molecule, the MIC alone ([16]; Table 5) was 512 µg/mL, the “IL-10 and IL-12 production” value [17] was “mildly suppressed” and the TNF-α production [17] was “no significant effects”. The “percentage of internalized bacteria by HaCaT cells” value (from here on “percentage of internalized bacteria”) ([18]; ECG 4 μg/ml) was 62.2±2.7%, the “percentage of internalized bacteria” value ([18]; ECG 8 μg/ml) was 62.8±10.5% and the “percentage of internalized bacteria” value ([18]; ECG 16 μg/ml) was 53.7±6.3%. For the same molecule, the “percentage of internalized bacteria” value ([18]; ECG 32 μg/ml) was 42.2±8.9%, the “percentage of internalized bacteria” value ([18]; ECG 64 μg/ml) was 34.7±4.5% and the MIC ([19]; Staphylococcus aureus, ATCC25293 / ATCC25923, read-out: MIC alone) was 512 µg/mL. The MIC90 ([19]; Staphylococcus aureus, ATCC25923) was 128 µg/mL, the MIC99 ([19]; Staphylococcus aureus, ATCC25923, read-out: MIC 99.9) was greater than 512 µg/mL and the “potentiation of the activity of norfloxacin” value [20] was “four-fold potentiation”. It also gave an MIC alone [21] of 512 µg/mL, an FIC ([21]; ECG+Kur+Fus) of 0.0007 and an MIC combine ([21]; ECG+Kur+Fus) of 4 µg/mL. The FIC ([21]; ECG+Kur, no Fus) was 0.03, the MIC combine ([21]; ECG+Kur, no Fus) was 16 µg/mL and the FIC ([21]; Kuraridin with ECG) was 0.03. For the same molecule, the MIC combine ([21]; Kuraridin with ECG) was 16 µg/mL, the MIC90 ([21]; Staphylococcus aureus) was 8 µg/mL and the MIC99 [21, 27] was greater than 512 µg/mL. For the same molecule, the MIC [21, 28] was 512 µg/mL, the MIC90 ([22]; Staphylococcus aureus, MRSA) was 4 to 16 µg/mL and the “concentration for 99.9% inhibition” value ([22]; panel of laboratory strains) was greater than 512 µg/mL. The FIC [23] was 0.008, the MIC combine [23] was 4 µg/mL and the “Cellular toxicity (XTT assay)” value [24] was “not toxic”.

With `C=C(C)[C@H](CC=C(C)C)Cc1c(O)cc(OC)c(C(=O)/C=C/c2ccc(O)cc2O)c1O` [Kuraridin] the MIC alone [4] was 8 µg/mL, the FIC ([4]; ECG with Kur) was 0.5 and the MIC combine ([4]; ECG with Kur) was 4 µg/mL. For the same molecule, the FIC ([4]; ECG+Kur+Van) was 0.25, the MIC combine ([4]; ECG+Kur+Van) was 2 µg/mL and the MIC alone ([4]; Table 5) was 8 µg/mL. The MIC alone ([5]; ST239) was 8 µg/mL, the FIC ([5]; ST239, ECG with Kur) was 0.5 and the MIC combine ([5]; ST239, ECG with Kur) was 4 µg/mL. It also gave an FIC ([5]; ST239, ECG+Kur+Van) of 0.125, an MIC combine ([5]; ST239, ECG+Kur+Van) of 1 µg/mL and an MIC alone ([5]; ST239, Table 5) of 8 µg/mL. It also gave an MIC alone [7] of 8 µg/mL, an FIC ([7]; ECG with Kur) of 0.5 and an MIC combine ([7]; ECG with Kur) of 4 µg/mL. The FIC ([7]; ECG+Kur+Van) was 0.25, the MIC combine ([7]; ECG+Kur+Van) was 2 µg/mL and the MIC alone ([7]; Table 5) was 8 µg/mL. For the same molecule, the MIC alone ([8]; W240) was 8 µg/mL, the FIC ([8]; W240) was 0.5 and the MIC combine ([8]; W240) was 4 µg/mL. For the same molecule, the MIC alone [16] was 8 µg/mL, the FIC ([16]; ECG with Kur) was 0.5 and the MIC combine ([16]; ECG with Kur) was 4 µg/mL. It also gave an FIC ([16]; ECG+Kur+Van) of 0.25, an MIC combine ([16]; ECG+Kur+Van) of 2 µg/mL and an MIC alone ([16]; Table 5) of 8 µg/mL. It also gave an MIC alone ([19]; ATCC 25293) of 8 µg/mL, an FIC ([19]; ATCC 25293, ECG with Kur) of 0.5 and an MIC combine ([19]; ATCC 25293, ECG with Kur) of 4 µg/mL. It also gave an MIC alone [21] of 8 µg/mL, an FIC ([21]; ECG+Kur+Fus) of 0.25 and an MIC combine ([21]; ECG+Kur+Fus) of 2 µg/mL. The FIC ([21]; ECG+Kur, no Fus) was 0.25 and the MIC combine ([21]; ECG+Kur, no Fus) was 2 µg/mL.
